Measured values reported in patent EP0725790B1, “SUBSTITUTED TETRA- AND PENTAPEPTIDE INHIBITORS OF PROTEIN:FARNESYL TRANSFERASE” (PARKE DAVIS & COMPANY, priority 1993, dated 1995).
Non-standard residues stand in square brackets, D forms with d. Residues, ends and D or L forms follow the SMILES beside them. *: point of attachment. pY = N[C@@H](Cc1ccc(OP(=O)(O)O)cc1)C(=O)O; Cbz = O=C(OCc1ccccc1)*; Bn = c1ccc(C*)cc1; NHNH2 = NN*

What follows are compounds tested against T1, rat brain farnesyl protein transferase (Rattus norvegicus, UniProt Q02293+Q04631) (assay: PFT inhibitory activity assay (radiolabeled farnesyl pyrophosphate, biotinylated peptide substrate, streptavidin beads)). Details: 40-fold purified enzyme; 30 mM potassium phosphate buffer, pH 7.4; 37°C for 30 minutes; farnesyl pyrophosphate 0.12 µM, (biotinyl)-Ahe-Tyr-Lys-Cys-Val-Ile-Met 0.1 µM.
T1 construct: 40-fold purified rat brain farnesyl protein transferase; from tissue; host or cells: rat brain
Type: biochemical
Method: The PFT inhibitory activity of compounds of Formula I was assayed in 30 mM potassium phosphate buffer, pH 7.4, containing 7 mM DTT, 1.2 mM MgCl2, 0.1 mM leupeptin, 0.1 mM pepstatin, and 0.2 mM phenylmethylsulfonyl fluoride. Assays were performed in 96 well plates (Wallec) and employed solutions composed of varying concentrations of a compound of Formula I in 100% DMSO. Upon addition of both substrates, radiolabeled farnesyl pyrophosphate ([1-^3H], specific activity 15-30 Ci/mmol, final concentration 0.12 µM) and (biotinyl)-Ahe-Tyr-Lys-Cys-Val-Ile-Met peptide (final concentration 0.1 µM), the enzyme reaction was started by addition of 40-fold purified rat brain farnesyl protein transferase. After incubation at 37°C for 30 minutes, the reaction was terminated by diluting the reaction 2.5-fold with a stop buffer containing 1.5 M magnesium acetate, 0.2 M H3PO4, 0.5% BSA, and strepavidin beads (Amersham) at a concentration of 1.3 mg/mL. After allowing the plate to settle for 30 minutes at room temperature, radioactivity was quantitated on a microBeta counter (model 1450, Wallec).

Compound	IC50
C[C@@H](NC(=O)[C@H](Cc1c[nH]c2ccccc12)NC(=O)[C@H](COCc1ccccc1)NC(=O)[C@H](Cc1ccc(OCc2ccccc2)cc1)NC(=O)[C@H](Cc1c[nH]cn1)NC(=O)OCc1ccccc1)C(N)=O [Cbz-His-Tyr(OBn)-Ser(OBn)-Trp-DAla- NH2, Nα-[N-[N-[N-[N-[(Phenylmethoxy)carbonyl]-L-histidyl]-O-(phenylmethyl)-L-tyrosyl]-O-(phenylmethyl)-L-seryl]-Ltryptophyl]-D-alaninamide] (Cbz-HY(Bn)S(Bn)W[dA]-NH2)	17 nM
C[C@@H](NC(=O)[C@H](Cc1c[nH]c2ccccc12)NC(=O)[C@H](COCc1ccccc1)NC(=O)[C@H](Cc1ccc(OCc2ccccc2)cc1)NC(=O)[C@H](Cc1c[nH]cn1)NC(=O)OCc1ccccc1)C(=O)O [Cbz-His-Tyr(OBn)-Ser(OBn)-Trp-DAla- OH, Cbz-His-Tyr(OBn)-Ser(OBn)-Trp-D-Ala] (Cbz-HY(Bn)S(Bn)W[dA]-OH)	48 nM
C[C@@H](NC(=O)[C@H](Cc1c[nH]c2ccccc12)NC(=O)[C@H](COCc1ccccc1)NC(=O)[C@@H](Cc1ccc(OCc2ccccc2)cc1)NC(=O)[C@H](Cc1c[nH]cn1)NC(=O)OCc1ccccc1)C(N)=O [Cbz-His-DTyr(OBn)-Ser(OBn)-Trp-DAla-NH2, Cbz-His-D-Tyr(OBn)-Ser(OBn)-Trp-D-Ala- NH2] (Cbz-H[dY](Bn)S(Bn)W[dA]-NH2)	39 nM
C[C@@H](NC(=O)[C@H](Cc1c[nH]c2ccccc12)NC(=O)[C@H](COCc1ccccc1)NC(=O)[C@H](Cc1ccc(OP(=O)(O)O)cc1)NC(=O)[C@H](Cc1c[nH]cn1)NC(=O)OCc1ccccc1)C(N)=O [Cbz-His-Tyr(OPO3H2)-Ser(OBn)-Trp-DAla- NH2] (Cbz-H[pY]S(Bn)W[dA]-NH2)	9 nM
COC(=O)[C@H](Cc1c[nH]c2ccccc12)NC(=O)[C@H](COCc1ccccc1)NC(=O)[C@H](Cc1ccc(OCc2ccccc2)cc1)NC(=O)[C@H](Cc1c[nH]cn1)NC(=O)OCc1ccccc1 [Cbz-His-Tyr(OBn)-Ser(OBn)-Trp- OMe, N-[N-[N-[N-[(Phenylmethoxy)carbonyl]-L-histidyl]-O-(phenylmethyl)-L-tyrosyl]-O-(phenylmethyl)-L-seryl]-L-tryptophan, methyl ester] (Cbz-HY(Bn)S(Bn)W-OMe)	115 nM
C[C@@H](NC(=O)[C@H](Cc1c[nH]c2ccccc12)NC(=O)[C@H](CO)NC(=O)[C@H](Cc1ccc(OCc2ccccc2)cc1)NC(=O)[C@H](Cc1c[nH]cn1)NC(=O)OCc1ccccc1)C(N)=O [Cbz-His-Tyr(OBn)-Ser-Trp-DAla-NH2, Cbz-His-Tyr(OBn)-Ser-Trp-D-Ala- NH2] (Cbz-HY(Bn)SW[dA]-NH2)	1800 nM
CCNC(=O)[C@@H](C)NC(=O)[C@H](Cc1c[nH]c2ccccc12)NC(=O)[C@H](COCc1ccccc1)NC(=O)[C@H](Cc1ccc(OCc2ccccc2)cc1)NC(=O)[C@H](Cc1c[nH]cn1)NC(=O)OCc1ccccc1 [Cbz-His-Tyr(OBn)-Ser(OBn)-Trp-DAla- NHEt, Cbz-His-Tyr(OBn)-Ser(OBn)-Trp-D-Ala- NHEt] (Cbz-HY(Bn)S(Bn)W[dA]-NHEt)	230 nM

More lines, in order of falling IC50, values ahead:

IC50	Compound
330 nM	C[C@H](NC(=O)[C@H](COCc1ccccc1)NC(=O)[C@H](Cc1ccc(OCc2ccccc2)cc1)NC(=O)[C@H](Cc1c[nH]cn1)NC(=O)OCc1ccccc1)C(=O)N[C@H](C)C(N)=O [Cbz-His-Tyr (OBn)-Ser(OBn)-Ala-DAla-NH2, Cbz-His-Tyr(OBn)-Ser(OBn)-Ala-D-Ala- NH2] (Cbz-HY(Bn)S(Bn)A[dA]-NH2)
120 nM	C[C@@H](NC(=O)[C@H](Cc1c[nH]c2ccccc12)NC(=O)[C@H](COCc1ccccc1)NC(=O)[C@H](Cc1ccc(OCc2ccccc2)cc1)NC(=O)[C@@H](Cc1c[nH]cn1)NC(=O)OCc1ccccc1)C(N)=O [Cbz-DHis-Tyr (OBn)-Ser(OBn)-Trp-DAla-NH2, Cbz-D-His-Tyr(OBn)-Ser(OBn)-Trp-D-Ala- NH2] (Cbz-[dH]Y(Bn)S(Bn)W[dA]-NH2)
83 nM	NC(=O)[C@H](Cc1c[nH]c2ccccc12)NC(=O)[C@H](COCc1ccccc1)NC(=O)[C@H](Cc1ccc(OCc2ccccc2)cc1)NC(=O)[C@H](Cc1c[nH]cn1)NC(=O)OCc1ccccc1 [Cbz-His-Tyr(OBn)-Ser(OBn)-Trp-NH2, Cbz-His-Tyr(OBn)-Ser(OBn)-Trp- NH2] (Cbz-HY(Bn)S(Bn)W-NH2)
62 nM	C[C@@H](NC(=O)[C@H](Cc1c[nH]c2ccccc12)NC(=O)[C@H](COCc1ccccc1)NC(=O)[C@H](Cc1ccc(OCc2ccccc2)cc1)NC(=O)[C@H](Cc1c[nH]cn1)NC(=O)OCc1ccccc1)C(=O)NN [Cbz-His-Tyr(OBn)-Ser(OBn)-Trp-D-Ala- NHNH2] (Cbz-HY(Bn)S(Bn)W[dA]-NHNH2)
40 nM	C[C@@H](NC(=O)[C@H](Cc1c[nH]c2ccccc12)NC(=O)[C@H](COCc1ccccc1)NC(=O)[C@H](Cc1ccc(O)cc1)NC(=O)[C@H](Cc1c[nH]cn1)NC(=O)OCc1ccccc1)C(N)=O [Cbz-His-Tyr-Ser(OBn)-Trp-DAla-NH2, Cbz-His-Tyr-Ser(OBn)-Trp-D-Ala- NH2] (Cbz-HYS(Bn)W[dA]-NH2)
19 nM	COC(=O)[C@@H](C)NC(=O)[C@H](Cc1c[nH]c2ccccc12)NC(=O)[C@H](COCc1ccccc1)NC(=O)[C@H](Cc1ccc(OCc2ccccc2)cc1)NC(=O)[C@H](Cc1c[nH]cn1)NC(=O)OCc1ccccc1 [Cbz-His-Tyr(OBn)-Ser(OBn)-Trp-DAla-OMe, Cbz-His-Tyr(OBn)-Ser(OBn)-Trp-D-Ala-OMe] (Cbz-HY(Bn)S(Bn)W[dA]-OMe)
15 nM	C[C@H](NC(=O)[C@H](Cc1c[nH]c2ccccc12)NC(=O)[C@H](COCc1ccccc1)NC(=O)[C@H](Cc1ccc(OCc2ccccc2)cc1)NC(=O)[C@H](Cc1c[nH]cn1)NC(=O)OCc1ccccc1)C(N)=O [Cbz-His-Tyr(OBn)-Ser(OBn)-Trp-Ala-NH2, Cbz-His-Tyr(OBn)-Ser(OBn)-Trp-Ala- NH2] (Cbz-HY(Bn)S(Bn)WA-NH2)
10 nM	C[C@@H](NC(=O)[C@H](Cc1c[nH]c2ccccc12)NC(=O)[C@H](COCc1ccccc1)NC(=O)[C@H](Cc1ccccc1)NC(=O)[C@H](Cc1c[nH]cn1)NC(=O)OCc1ccccc1)C(N)=O [Cbz-His-Phe-Ser(OBn)-Trp-DAla-NH2, Cbz-His-Phe-Ser(OBn)-Trp-D-Ala- NH2] (Cbz-HFS(Bn)W[dA]-NH2)
4 nM	C[C@@H](NC(=O)[C@H](Cc1c[nH]c2ccccc12)NC(=O)[C@H](CS)NC(=O)[C@H](Cc1ccc(OCc2ccccc2)cc1)NC(=O)[C@H](Cc1c[nH]cn1)NC(=O)OCc1ccccc1)C(N)=O [Cbz-His-Tyr (OBn)-Cys-Trp-DAla-NH2] (Cbz-HY(Bn)CW[dA]-NH2)
